What was measured:
[1] = test system: Mus musculus; assay: Analgesic activity in ICR mouse assessed as pain threshold variation at 20 umol/kg, ip administered as single dose measured after 60 mins by tail flick test relative to control; assay type: functional
[2] = test system: Mus musculus; assay: Analgesic activity in ICR mouse assessed as pain threshold variation at 20 umol/kg, ip administered as single dose measured after 150 mins by tail flick test relative to control; assay type: functional
[3] = test system: Mus musculus; assay: Analgesic activity in ICR mouse assessed as pain threshold variation at 20 umol/kg, ip administered as single dose measured after 120 mins by tail flick test relative to control; assay type: functional
[4] = test system: Mus musculus; assay: Analgesic activity in ICR mouse assessed as pain threshold variation at 20 umol/kg, ip administered as single dose measured after 30 mins by tail flick test relative to control; assay type: functional
[5] = test system: Mus musculus; assay: Analgesic activity in ICR mouse assessed as pain threshold variation at 20 umol/kg, ip administered as single dose measured after 90 mins by tail flick test relative to control; assay type: functional
[6] = test system: Mus musculus; assay: Analgesic activity in ICR mouse assessed as pain threshold variation at 20 umol/kg, ip administered as single dose measured after 180 mins by tail flick test relative to control; assay type: functional
[7] = test system: Mus musculus; assay: Analgesic activity in ICR mouse assessed as pain threshold variation at 12.5 umol/kg, po administered as single dose measured after 90 mins by tail flick test relative to control; assay type: functional
[8] = test system: Mus musculus; assay: Analgesic activity in ICR mouse assessed as pain threshold variation at 25 umol/kg, po administered as single dose measured after 120 mins by tail flick test relative to control; assay type: functional
[9] = test system: Mus musculus; assay: Analgesic activity in ICR mouse assessed as pain threshold variation at 12.5 umol/kg, po administered as single dose measured after 180 mins by tail flick test relative to control; assay type: functional
[10] = test system: Mus musculus; assay: Analgesic activity in ICR mouse assessed as pain threshold variation at 12.5 umol/kg, po administered as single dose measured after 120 mins by tail flick test relative to control; assay type: functional
[11] = test system: Mus musculus; assay: Analgesic activity in ICR mouse assessed as pain threshold variation at 25 umol/kg, po administered as single dose measured after 180 mins by tail flick test relative to control; assay type: functional
[12] = test system: Mus musculus; assay: Analgesic activity in ICR mouse assessed as pain threshold variation at 25 umol/kg, po administered as single dose measured after 90 mins by tail flick test relative to control; assay type: functional
[13] = test system: Mus musculus; assay: Analgesic activity in ICR mouse assessed as pain threshold variation at 6.25 umol/kg, po administered as single dose measured after 120 mins by tail flick test relative to control; assay type: functional
[14] = test system: Mus musculus; assay: Analgesic activity in ICR mouse assessed as pain threshold variation at 25 umol/kg, po administered as single dose measured after 150 mins by tail flick test relative to control; assay type: functional
[15] = test system: Mus musculus; assay: Analgesic activity in ICR mouse assessed as pain threshold variation at 6.25 umol/kg, po administered as single dose measured after 90 mins by tail flick test relative to control; assay type: functional
[16] = test system: Mus musculus; assay: Analgesic activity in ICR mouse assessed as pain threshold variation at 6.25 umol/kg, po administered as single dose measured after 60 mins by tail flick test relative to control; assay type: functional
[17] = test system: Mus musculus; assay: Analgesic activity in ICR mouse assessed as pain threshold variation at 12.5 umol/kg, po administered as single dose measured after 60 mins by tail flick test relative to control; assay type: functional
[18] = test system: Mus musculus; assay: Analgesic activity in ICR mouse assessed as pain threshold variation at 6.25 umol/kg, po administered as single dose measured after 180 mins by tail flick test relative to control; assay type: functional
[19] = test system: Mus musculus; assay: Analgesic activity in ICR mouse assessed as pain threshold variation at 12.5 umol/kg, po administered as single dose measured after 150 mins by tail flick test relative to control; assay type: functional
[20] = test system: Mus musculus; assay: Analgesic activity in ICR mouse assessed as pain threshold variation at 25 umol/kg, po administered as single dose measured after 30 mins by tail flick test relative to control; assay type: functional
[21] = test system: Mus musculus; assay: Analgesic activity in ICR mouse assessed as pain threshold variation at 12.5 umol/kg, po administered as single dose measured after 30 mins by tail flick test relative to control; assay type: functional
[22] = test system: Mus musculus; assay: Analgesic activity in po dosed ICR mouse assessed as pain threshold variation administered as single dose measured after 30 to 180 mins by tail flick test; assay type: functional, organism-based
[23] = test system: Mus musculus; assay: Analgesic activity in ICR mouse assessed as pain threshold variation at 6.25 umol/kg, po administered as single dose measured after 150 mins by tail flick test relative to control; assay type: functional
[24] = test system: Mus musculus; assay: Analgesic activity in ICR mouse assessed as pain threshold variation at 6.25 umol/kg, po administered as single dose measured after 30 mins by tail flick test relative to control; assay type: functional
[25] = test system: Mus musculus; assay: Analgesic activity in ICR mouse assessed as pain threshold variation at 25 umol/kg, po administered as single dose measured after 60 mins by tail flick test relative to control; assay type: functional

| Compound | Activity [7] | Activity [8] | Activity [9] | Activity [10] | Activity [11] | Activity [12] | Activity [13] | Activity [14] | Activity [15] | Activity [16] | Activity [17] | Activity [18] | Activity [19] | Activity [20] | Activity [21] | Activity [22] | Activity [23] | Activity [24] | Activity [25] | also measured |
| --- | --- | --- | --- | --- | --- | --- | --- | --- | --- | --- | --- | --- | --- | --- | --- | --- | --- | --- | --- | --- |
| CN1CC[C@]23c4c5ccc(O)c4O[C@H]2[C@@H](O)C=C[C@H]3[C@H]1C5 [MORPHINE] |  |  |  |  |  |  |  |  |  |  |  |  |  |  |  |  |  |  |  | Activity [1]: 177.6%; Activity [2]: 36.7%; Activity [3]: 64.9%; Activity [4]: 147%; Activity [5]: 122.7%; Activity [6]: 32.9% |
| CC(C)[C@H](NC(=O)CN(c1nc(Cl)nc2[nH]cnc12)C1CC1)C(=O)OCc1ccccc1 | 23.59% | 27.33% | 4.58% | 14.96% | 12.93% | 51.32% | 9.26% | 17.91% | 11.83% | 13.94% | 26.47% | 3.22% | 5.43% | 33.43% | 15.95% | Dose-dependent effect | 3.07% | 7.69% | 55.49% |  |
| CC(C)C[C@H](NC(=O)CN(c1nc(Cl)nc2[nH]cnc12)C1CC1)C(=O)O | 20.93% | 18.74% | 5.5% | 13.32% | 3.63% | 26.97% | 9.44% | 9.13% | 16.17% | 10.66% | 17.3% | 2.8% | 7.77% | 23.4% | 15.99% | Dose-dependent effect | 5.56% | 8.01% | 36.37% |  |
